Results reported in ChEMBL document CHEMBL3994622, “Design and synthesis of new RAF kinase-inhibiting antiproliferative quinoline derivatives. Part 2: Diarylurea derivatives” (Eur J Med Chem, 2017).

Tests used:
Format in all cases: functional
MDA-MB-468 = assay: Growth inhibition of human MDA-MB-468 cells incubated for 48 hrs by sulforhodamine B assay; conditions: MDA-MB-468, 48 h
NCI-H226 [1] = assay: Growth inhibition of human NCI-H226 cells assessed as cell growth at 0.01 uM incubated for 48 hrs by sulforhodamine B assay relative to control; conditions: NCI-H226, 48 h, read-out: Activity
KM12 = assay: Growth inhibition of human KM12 cells assessed as cell growth at 0.01 uM incubated for 48 hrs by sulforhodamine B assay relative to control; conditions: KM12, 48 h, read-out: Activity
SF-539 [2] = assay: Growth inhibition of human SF539 cells assessed as cell growth at 0.01 uM incubated for 48 hrs by sulforhodamine B assay relative to control; conditions: SF-539, 48 h, read-out: Activity
HL-60(TB) = assay: Growth inhibition of human HL-60(TB) cells assessed as cell growth at 0.1 uM incubated for 48 hrs by sulforhodamine B assay relative to control; conditions: HL-60, 48 h, read-out: Activity
K562 = assay: Growth inhibition of human K562 cells assessed as cell growth at 0.1 uM incubated for 48 hrs by sulforhodamine B assay relative to control; conditions: K562, 48 h, read-out: Activity
HOP-62 [3] = assay: Growth inhibition of human HOP62 cells assessed as cell growth at 0.1 uM incubated for 48 hrs by sulforhodamine B assay relative to control; conditions: HOP-62, 48 h, read-out: Activity
CAKI-1 [4] = assay: Growth inhibition of human Caki1 cells assessed as cell growth at 0.1 uM incubated for 48 hrs by sulforhodamine B assay relative to control; conditions: CAKI-1, 48 h, read-out: Activity
ACHN = assay: Growth inhibition of human ACHN cells assessed as cell growth at 1 uM incubated for 48 hrs by sulforhodamine B assay relative to control; conditions: read-out: Activity
NCI-H226 [5] = assay: Growth inhibition of human NCI-H226 cells assessed as cell growth at 10 uM incubated for 48 hrs by sulforhodamine B assay relative to control; conditions: NCI-H226, 48 h, read-out: Activity
SNB-75 = assay: Growth inhibition of human SNB75 cells assessed as cell growth at 10 uM incubated for 48 hrs by sulforhodamine B assay relative to control; conditions: SNB-75, 48 h, read-out: Activity
OVCAR-5 [6] = assay: Growth inhibition of human OVCAR5 cells assessed as cell growth at 10 uM incubated for 48 hrs by sulforhodamine B assay relative to control; conditions: OVCAR-5, 48 h, read-out: Activity
HOP-62 [7] = assay: Growth inhibition of human HOP62 cells assessed as cell growth at 100 uM incubated for 48 hrs by sulforhodamine B assay relative to control; conditions: HOP-62, 48 h, read-out: Activity
HOP-92 = assay: Growth inhibition of human HOP92 cells assessed as cell growth at 100 uM incubated for 48 hrs by sulforhodamine B assay relative to control; conditions: HOP-92, 48 h, read-out: Activity
SK-MEL-5 = assay: Growth inhibition of human SK-MEL-5 cells assessed as cell growth at 100 uM incubated for 48 hrs by sulforhodamine B assay relative to control; conditions: SK-MEL-5, 48 h, read-out: Activity
SF-539 [8] = assay: Growth inhibition of human SF539 cells assessed as cell growth at 0.003 uM incubated for 48 hrs by sulforhodamine B assay relative to control; conditions: SF-539, 48 h, read-out: Activity
MDA-MB-435 = assay: Growth inhibition of human MDA-MB-435 cells assessed as cell growth at 0.003 uM incubated for 48 hrs by sulforhodamine B assay relative to control; conditions: MDA-MB-435, 48 h, read-out: Activity
NCI/ADR-RES [9] = assay: Growth inhibition of human NCI/ADR-RES cells assessed as cell growth at 0.003 uM incubated for 48 hrs by sulforhodamine B assay relative to control; conditions: read-out: Activity
786-0 = assay: Growth inhibition of human 786-0 cells assessed as cell growth at 0.003 uM incubated for 48 hrs by sulforhodamine B assay relative to control; conditions: 786-0, 48 h, read-out: Activity
A498 = assay: Growth inhibition of human A498 cells assessed as cell growth at 0.003 uM incubated for 48 hrs by sulforhodamine B assay relative to control; conditions: A498, 48 h, read-out: Activity
CAKI-1 [10] = assay: Growth inhibition of human Caki1 cells assessed as cell growth at 0.003 uM incubated for 48 hrs by sulforhodamine B assay relative to control; conditions: CAKI-1, 48 h, read-out: Activity
RXF 393 = assay: Growth inhibition of human RXF393 cells assessed as cell growth at 0.003 uM incubated for 48 hrs by sulforhodamine B assay relative to control; conditions: RXF 393, 48 h, read-out: Activity
DU-145 = assay: Growth inhibition of human DU145 cells assessed as cell growth at 0.003 uM incubated for 48 hrs by sulforhodamine B assay relative to control; conditions: DU-145, 48 h, read-out: Activity
HCC 2998 = assay: Growth inhibition of human HCC2998 cells assessed as cell growth at 0.03 uM incubated for 48 hrs by sulforhodamine B assay relative to control; conditions: HCC 2998, 48 h, read-out: Activity
OVCAR-5 [11] = assay: Growth inhibition of human OVCAR5 cells assessed as cell growth at 0.03 uM incubated for 48 hrs by sulforhodamine B assay relative to control; conditions: OVCAR-5, 48 h, read-out: Activity
T47D = assay: Growth inhibition of human T47D cells assessed as cell growth at 0.03 uM incubated for 48 hrs by sulforhodamine B assay relative to control; conditions: read-out: Activity
Malme-3M = assay: Growth inhibition of human MALME-3M cells assessed as cell growth at 0.3 uM incubated for 48 hrs by sulforhodamine B assay relative to control; conditions: read-out: Activity
NCI/ADR-RES [12] = assay: Growth inhibition of human NCI/ADR-RES cells assessed as cell growth at 0.3 uM incubated for 48 hrs by sulforhodamine B assay relative to control; conditions: read-out: Activity
A549 = assay: Growth inhibition of human A549/ATCC cells assessed as cell growth at 3 uM incubated for 48 hrs by sulforhodamine B assay relative to control; conditions: A549, 48 h, read-out: Activity
M14 = assay: Growth inhibition of human M14 cells assessed as cell growth at 3 uM incubated for 48 hrs by sulforhodamine B assay relative to control; conditions: M14, 48 h, read-out: Activity
SK-MEL-28 = assay: Growth inhibition of human SK-MEL-28 cells assessed as cell growth at 3 uM incubated for 48 hrs by sulforhodamine B assay relative to control; conditions: SK-MEL-28, 48 h, read-out: Activity
MCF7 = assay: Growth inhibition of human MCF7 cells assessed as cell growth at 3 uM incubated for 48 hrs by sulforhodamine B assay relative to control; conditions: MCF7, 48 h, read-out: Activity
NCI-H522 = assay: Growth inhibition of human NCI-H522 cells assessed as cell growth at 30 uM incubated for 48 hrs by sulforhodamine B assay relative to control; conditions: NCI-H522, 48 h, read-out: Activity
SK-MEL-2 = assay: Growth inhibition of human SK-MEL-2 cells assessed as cell growth at 30 uM incubated for 48 hrs by sulforhodamine B assay relative to control; conditions: SK-MEL-2, 48 h, read-out: Activity

Row | Compound | GI50 (MDA-MB-468) [µM] | TGI (MDA-MB-468) [µM] | growth at 0.01 µM (NCI-H226 [1]) [%] | growth at 0.01 µM (KM12) [%] | growth at 0.01 µM (SF-539 [2]) [%] | growth at 0.1 µM (HL-60(TB)) [%] | growth at 0.1 µM (K562) [%] | growth at 0.1 µM (HOP-62 [3]) [%] | growth at 0.1 µM (CAKI-1 [4]) [%] | growth at 1 µM (ACHN) [%] | growth at 10 µM (NCI-H226 [5]) [%] | growth at 10 µM (SNB-75) [%] | growth at 10 µM (OVCAR-5 [6]) [%] | growth at 100 µM (HOP-62 [7]) [%] | growth at 100 µM (HOP-92) [%] | growth at 100 µM (SK-MEL-5) [%] | growth at 0.003 µM (SF-539 [8]) [%] | growth at 0.003 µM (MDA-MB-435) [%] | growth at 0.003 µM (NCI/ADR-RES [9]) [%] | growth at 0.003 µM (786-0) [%] | also measured
1 | COc1cc2cc(Oc3ccc(NC(=O)Nc4cc(C(F)(F)F)cc(C(F)(F)F)c4)cc3)c(C)nc2cc1OC | 1.08 | 3.96 | 103 | 98 | 92 | 84 | 108 | 94 | 90 | 17 | -60 | -32 | -58 | -92 | -58 | -93 | – | – | – | – | –
2 | Cc1nc2cc(O)c(O)cc2cc1Oc1ccc(NC(=O)Nc2ccc(Cl)c(Cl)c2)cc1 | 6.99 | 17.4 | – | – | – | – | – | – | – | – | – | – | – | – | – | – | 102 | 94 | 100 | 98 | CC50 (MDA-MB-468; read-out: LC50 (the source's name)): > 32.5 µM; growth at 0.003 µM (A498): 85%; growth at 0.003 µM (CAKI-1 [10]): 97%; growth at 0.003 µM (RXF 393): 100%; growth at 0.003 µM (DU-145): 105%; growth at 0.03 µM (HCC 2998): 99%; growth at 0.03 µM (OVCAR-5 [11]): 100%; growth at 0.03 µM (T47D): 102%; growth at 0.3 µM (Malme-3M): 81%; growth at 0.3 µM (NCI/ADR-RES [12]): 97%; growth at 3 µM (A549): 98%; growth at 3 µM (M14): 86%; growth at 3 µM (SK-MEL-28): 92%; growth at 3 µM (MCF7): 87%; growth at 30 µM (NCI-H522): -46%; growth at 30 µM (SK-MEL-2): -25%
3 | COc1cc2cc(Oc3ccc(NC(=O)Nc4ccc(Cl)c(Cl)c4)cc3)c(C)nc2cc1OC | – | – | 104 | 103 | 101 | 109 | 107 | 104 | 87 | 91 | -7 | -7 | 50 | -100 | -100 | -93 | – | – | – | – | –
4 | COc1cc2cc(Oc3ccc(NC(=O)Nc4ccc(Cl)c(C(F)(F)F)c4)cc3)c(C)nc2cc1OC | – | – | – | – | – | – | – | – | – | – | – | – | – | – | – | – | 108 | 98 | 104 | 97 | growth at 0.003 µM (A498): 91%; growth at 0.003 µM (CAKI-1 [10]): 93%; growth at 0.003 µM (RXF 393): 106%; growth at 0.003 µM (DU-145): 100%; growth at 0.03 µM (HCC 2998): 106%; growth at 0.03 µM (OVCAR-5 [11]): 102%; growth at 0.03 µM (T47D): 94%; growth at 0.3 µM (Malme-3M): 110%; growth at 0.3 µM (NCI/ADR-RES [12]): 94%; growth at 3 µM (A549): 10%; growth at 3 µM (M14): 18%; growth at 3 µM (SK-MEL-28): 27%; growth at 3 µM (MCF7): 7%; growth at 30 µM (NCI-H522): -81%; growth at 30 µM (SK-MEL-2): -69%
